Results on 1 substance are retold here after patent publication US8207154B2, “Catatonic bacteriochlorophyll derivatives” (Yeda Research and Development Co., Ltd., priority 2005, dated 2012).

The nature of data set [1]: Octanol/water partition ratio. The class given is physicochemical. From the text:
Optical absorption in water, λ (relative absorption): 753 (1.00), 519 (0.30), 354 (1.25) nm. Octanol/water partition ratio is 40/60. ESI-MS (+): 413.62 ([M-2×citrate]/2). Octanol/water partition ratio is 50/50. ESI-MS (+): 455.89 ([M-2×citrate]/2). Octanol/water partition ratio is 75/25.

The test system of a further data set is C6 glioma xenografts. The data set is described as follows: Photodynamic treatment (PDT) of C6 glioma xenografts. The data set is classed as in vivo, CD1 nude mice. Here is the method:
(vii) Tumor implantation. Cultured C6 glioma cell monolayers were scraped in saline, centrifuged at 250 g for 5 min, resuspended in saline and subcutaneously injected (2×10^6 cells/mouse) into the back of CD1 nude mice. Tumors reached a treatment diameter of 6-8 mm within 2 weeks. The mice were sacrificed (according to the guidelines of the Weizmann Institute of Science) when tumors reached the diameter of ≧15 mm.
(xi) PDT Protocol. CD1 nude mice bearing C6 glioma (n=17) were anesthetized and compound 5 (0.3 mg/kg) was injected via the tail vein. The tumor area was immediately illuminated (drug-to-light time interval (DLTI)=0) transcutaneously for 15 min by 755 nm diode laser (CeramOptec, Germany) with light dose of 80 mW/cm^2 (light field diameter—14 mm). Following illumination the mice (n=12) were placed back in the cage. Tumor response (using local necrosis at day 8 post-PDT as end point) was recorded photographically, and tumor volume was assessed (Gleave et al., 1992.) Response was considered as partial when only a part of the illuminated tumor became necrotic. Mice were considered cured if they were tumor free 90 days after treatment. Continued tumor growth following PDT was scored as no response. Mice were sacrificed when tumor diameter reached 15 mm. The following controls were used: (i) dark control (n=3)-tumor-bearing mice i.v. injected with sensitizer but not illuminated; (ii) light control (n=2)-tumor-bearing mice not injected with sensitizer but illuminated; (iii) untreated control (n=2)-tumor-bearing mice not injected with sensitizer and not illuminated.
Based on the pharmacokinetic data described in Example 20 above, the treatment protocol for compound 5 was set to 15-min illumination immediately after injection of the sensitizer, using a dedicated medical laser matched to the peak absorption of 5 (CeramOptec, Germany, 755 nm). In order to test the drug efficiency, CD1 male nude mice (n=12) were treated with a dose of 0.3 mg/kg compound 5 and light intensity of 80 mW/cm^2. […] FIGS. 6B-6C are photographs of the tumor site of a mice injected with compound 5 but not illuminated and of a mice injected with saline and illuminated, respectively.
FIG. 7 depicts a Kaplan-Meier survival curve showing 80% survival for mice treated with compound 5 and illuminated (treatment, squares).

With “3^1-Oxo-15-methoxycarbonylmethyl-Rhodo-bacteriochlorin 13^1,17^3-di(2-N^3-trimethylammoniumethyl)amide dicitrate salt [Compound 5]”, the Octanol/water partition ratio in data set [1] (dicitrate salt) is on record as 40/60; in data set [1] (listed as 2, dicitrate salt) it was 75/25. The “survival (Kaplan-Meier survival curve)” value with C6 glioma xenografts (0.3 mg/kg i.v., illuminated 15 min, 755 nm, 80 mW/cm^2) is on record as 80%. Moreover, the “lower concentration causing tumor eradication than Pd-Bpheid or the negatively-charged 13^1-(2-sulfoethyl)amide dipotassium salt” value with C6 glioma xenografts (C6 glioma xenografts in mice) was determined as 10 fold. In addition, in the data set with C6 glioma xenografts (PDT-treated mouse, by day 32), the “outcome at tumor site” value is “the wound healed and the animal was cured”. Also, the tumor necrosis result with C6 glioma xenografts (PDT-treated mouse, day 14, 0.3 mg/kg, 80 mW/cm^2) was “tumor necrosis was observed”. In addition, in the data set with C6 glioma xenografts (all animals of full treatment group, day 1 after treatment), the “local reaction after treatment” value was “developed inflammation and edema”. The “tumor necrosis, dark control” value with C6 glioma xenografts (injected with compound but not illuminated) is listed as “No necrosis of the tumor”.
